# Assay results from patent publication US9670247B2, “Contraceptive agents” (The University of Kansas, priority 2012, dated 2017).
# Tested on: Na,K-ATPase α4 isoform
# Conditions: higher than that of the ubiquitous α1 isoform; cited from earlier work
row,SMILES,affinity for ouabain of α4 relative to the α1 isoform
1,C[C@@H]1O[C@@H](O[C@H]2C[C@@H](O)[C@]3(CO)[C@H]4[C@H](O)C[C@]5(C)[C@@H](C6=CC(=O)OC6)CC[C@]5(O)[C@@H]4CC[C@]3(O)C2)[C@H](O)[C@H](O)[C@H]1O [ouabain],"10,000 fold"

# Tested on: not given
# Conditions: not given
row,melting point,SMILES
1,154 to 158 °C,"COCO[C@H]1C[C@H]2OC(C)(C)OC[C@]23C2C(CC[C@]3(O)C1)[C@@]1(OCOC)CC[C@H](CO)[C@@]1(C)C[C@H]2OCOC (stereo partly drawn) [Compound 22, (3S,3aR,5R,5bR,9aR,11S,12aS,14bS)-3-(hydroxymethyl)-5,11,14b-tris(methoxymethoxy)-3a,8,8-trimethylhexadecahydro-1H-cyclopenta[7,8]phenanthro[4,4a-d][1,3]dioxin-12a-ol]"
2,286 to 287 °C,C[C@]12CCC3C(CC=C4C[C@@H](O)CC[C@@]43C)[C@@H]1CC[C@@H]2C1=CC(=O)OC1 (stereo in doubt)
3,97 to 99 °C,"COCO[C@@H]1[C@H]2OC(C)(C)O[C@H]2[C@H](O[C@H]2C[C@H]3OC(C)(C)OC[C@]34C3C(CC[C@]4(O)C2)[C@@]2(O)CC[C@H](C#N)[C@@]2(C)C[C@H]3OCOC)O[C@H]1C (stereo partly drawn) [Compound 11, (3S,3aR,5R,5bR,9aR,11S,12aS,14bS)-12a,14b-dihydroxy-5-(methoxymethoxy)-11-(((3aR,4R,6S,7S,7aR)-7-(methoxymethoxy)-2,2,6-trimethyltetrahydro-3aH-[1,3]dioxolo[4,5-c]pyran-4-yl)oxy)-3a,8,8-trimethylhexadecahydro-1H-cyclopenta[7,8]phenanthro[4,4a-d][1,3]dioxine-3-carbonitrile]"
4,129 to 135 °C,COCO[C@H]1C[C@H]2OC(C)(C)OC[C@]23C2C(CC[C@]3(O)C1)[C@@]1(OCOC)CC[C@H](C=O)[C@@]1(C)C[C@H]2OCOC (stereo partly shown)
5,119 to 121 °C,"COCO[C@@H]1[C@H]2OC(C)(C)O[C@H]2[C@H](O[C@H]2C[C@H]3OC(C)(C)OC[C@]34C3C(CC[C@]4(O)C2)[C@@]2(O)CC[C@H](C(O)CO)[C@@]2(C)C[C@H]3OCOC)O[C@H]1C (stereo partly drawn) [Compound 3, (3S,3aR,5R,5bR,9aR,11S,12aS,14bS)-3-(1,2-dihydroxyethyl)-5-(methoxymethoxy)-11-(((3aR,4R,6S,7S,7aR)-7-(methoxymethoxy)-2,2,6-trimethyltetrahydro-3aH-[1,3]dioxolo[4,5-c]pyran-4-yl)oxy)-3a,8,8-trimethylhexadecahydro-1H-cyclopenta[7,8]phenanthro[4,4a-d][1,3]dioxine-12a,14b-diol]"
6,126 to 129 °C,"COCO[C@@H]1[C@H]2OC(C)(C)O[C@H]2[C@H](O[C@H]2C[C@H]3OC(C)(C)OC[C@]34C3C(CC[C@]4(O)C2)[C@@]2(O)CC[C@H](CO)[C@@]2(C)C[C@H]3OCOC)O[C@H]1C (stereo partly drawn) [Compound 10, (3S,3aR,5R,5bR,9aR,11S,12aS,14bS)-3-(hydroxymethyl)-5-(methoxymethoxy)-11-(((3aR,4R,6S,7S,7aR)-7-(methoxymethoxy)-2,2,6-trimethyltetrahydro-3aH-[1,3]dioxolo[4,5-c]pyran-4-yl)oxy)-3a,8,8-trimethylhexadecahydro-1H-cyclopenta[7,8]phenanthro[4,4a-d][1,3]dioxine-12a,14b-diol]"
7,195 to 197 °C,CC(C)[C@H](N)C(=O)O[C@H]1CC[C@@]2(C)C(=CCC3C2CC[C@@]2(C)C3CC[C@@H]2c2cn(Cc3ccccc3)nn2)C1 (stereo partly shown)
8,221 to 223 °C,COC(=O)Cn1cc([C@H]2CCC3C4CC=C5C[C@@H](O)CC[C@]5(C)C4CC[C@@]32C)nn1 (stereo partly shown)

# Target: hERG (Homo sapiens, UniProt Q12809)
# Sequence (Q12809 whole entry): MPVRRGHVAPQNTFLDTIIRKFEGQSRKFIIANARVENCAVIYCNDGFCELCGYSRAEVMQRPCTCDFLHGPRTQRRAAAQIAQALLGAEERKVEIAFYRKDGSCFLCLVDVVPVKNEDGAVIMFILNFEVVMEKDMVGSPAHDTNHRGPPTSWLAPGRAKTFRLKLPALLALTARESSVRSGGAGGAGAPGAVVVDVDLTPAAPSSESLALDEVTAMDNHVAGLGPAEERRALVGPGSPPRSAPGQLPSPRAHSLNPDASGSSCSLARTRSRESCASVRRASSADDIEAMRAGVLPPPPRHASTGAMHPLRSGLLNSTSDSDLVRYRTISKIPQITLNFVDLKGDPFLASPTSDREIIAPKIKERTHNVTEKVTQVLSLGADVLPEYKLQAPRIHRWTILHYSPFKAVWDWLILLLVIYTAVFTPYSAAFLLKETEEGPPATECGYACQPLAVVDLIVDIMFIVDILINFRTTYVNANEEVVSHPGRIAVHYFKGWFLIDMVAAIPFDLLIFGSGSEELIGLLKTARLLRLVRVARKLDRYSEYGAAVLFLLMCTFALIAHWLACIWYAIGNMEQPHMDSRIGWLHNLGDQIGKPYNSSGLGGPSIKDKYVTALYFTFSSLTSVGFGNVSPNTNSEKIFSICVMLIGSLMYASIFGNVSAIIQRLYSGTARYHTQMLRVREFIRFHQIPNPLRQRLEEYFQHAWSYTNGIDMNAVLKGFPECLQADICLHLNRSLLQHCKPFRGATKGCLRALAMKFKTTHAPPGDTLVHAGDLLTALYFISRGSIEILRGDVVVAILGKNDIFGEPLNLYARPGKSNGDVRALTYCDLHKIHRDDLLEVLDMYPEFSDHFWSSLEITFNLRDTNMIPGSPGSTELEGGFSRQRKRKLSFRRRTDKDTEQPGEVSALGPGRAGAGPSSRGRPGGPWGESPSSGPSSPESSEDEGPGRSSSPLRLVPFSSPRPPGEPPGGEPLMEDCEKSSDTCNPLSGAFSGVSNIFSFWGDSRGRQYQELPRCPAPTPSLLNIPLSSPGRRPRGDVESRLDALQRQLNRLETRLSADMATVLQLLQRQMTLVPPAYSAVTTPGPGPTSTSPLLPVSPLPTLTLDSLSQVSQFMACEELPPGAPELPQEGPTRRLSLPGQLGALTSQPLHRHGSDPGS
# Conditions: not given
row,SMILES,effect on hERG
1,C[C@@H]1O[C@@H](O[C@H]2C[C@@H](O)[C@]3(CO)[C@H]4[C@H](O)C[C@]5(C)[C@@H](C6=CC(=O)OC6)CC[C@]5(O)[C@@H]4CC[C@]3(O)C2)[C@H](O)[C@H](O)[C@H]1O [ouabain],inhibited hERG activity
